Measurements published in patent US9249127B2 (Orion Corporation, priority 2012, dated 2016).
Like-named read-outs stand apart in the source and are kept apart here.

Molecular target: T1, alpha2A receptor (Homo sapiens, UniProt P08913)
T1 sequence (P08913 1-465): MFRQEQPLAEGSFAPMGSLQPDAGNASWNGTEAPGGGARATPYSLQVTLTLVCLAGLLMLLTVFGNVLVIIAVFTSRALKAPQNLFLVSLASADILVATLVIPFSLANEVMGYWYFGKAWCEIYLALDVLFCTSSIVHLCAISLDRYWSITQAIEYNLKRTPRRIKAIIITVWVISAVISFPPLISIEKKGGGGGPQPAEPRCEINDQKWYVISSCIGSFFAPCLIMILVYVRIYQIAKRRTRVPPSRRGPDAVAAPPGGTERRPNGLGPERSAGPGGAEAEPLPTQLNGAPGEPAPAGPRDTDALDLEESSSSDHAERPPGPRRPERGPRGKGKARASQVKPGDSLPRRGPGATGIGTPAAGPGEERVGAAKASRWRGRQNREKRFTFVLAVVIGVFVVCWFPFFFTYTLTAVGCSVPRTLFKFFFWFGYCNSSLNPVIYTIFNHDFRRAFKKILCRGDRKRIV
Test: Alpha2A agonistic activity in vitro
Type: cell-based

[1] = in vitro, read-out: Alpha2A Agonism pEC50 (converted)
[2] = Alpha2A Agonism pEC50, in vitro

SMILES | Alpha2A Intrinsic Activity (in vitro) | EC50 [1] | EC50 [2]
Cc1cc(Br)cc2c1CCOC2C1=NCCN1 (stereo not drawn) [Example 60, 2-(7-Bromo-5-methylisochroman-1-yl)-4,5-dihydro-1H-imidazole] | 0.66 | 126 nM | –
COc1cc(C)c2c(c1)C(C1=NCCN1)OCC2 (stereo not drawn) [Example 61, 2-(7-Methoxy-5-methylisochroman-1-yl)-4,5-dihydro-1H-imidazole] | 0.81 | – | –
Cc1cccc2c1CC(C)SC2C1=NCCN1 (stereo not drawn) [Example 62, 2-(3,5-Dimethylisothiochroman-1-yl)-4,5-dihydro-1H-imidazole] | 0.77 | – | –
CC1Cc2c(Br)cccc2C(C2=NCCN2)S1 (stereo not drawn) [Example 63, 2-(5-Bromo-3-methylisothiochroman-1-yl)-4,5-dihydro-1H-imidazole] | 0.85 | 3160 nM | –
Cc1cccc2c1CCSC2C1=NCCN1 (stereo not drawn) [Example 64, 2-(5-Methylisothiochroman-1-yl)-4,5-dihydro-1H-imidazole] | 0.59 | – | 79.4 nM
Brc1cccc2c1CCSC2C1=NCCN1 (stereo not drawn) [Example 65, 2-(5-Bromoisothiochroman-1-yl)-4,5-dihydro-1H-imidazole] | 0.56 | – | 79.4 nM
CC1(C2=NCCN2)SCCc2c(Br)cccc21 (stereo not drawn) [Example 66, 2-(5-Bromo-1-methylisothiochroman-1-yl)-4,5-dihydro-1H-imidazole] | 0.43 | 1580 nM | –
CCC1Cc2c(Br)cc(Br)cc2C(C2=NCCN2)O1 (stereo not drawn) [Example 67, 2-(5,7-Dibromo-3-ethylisochroman-1-yl)-4,5-dihydro-1H-imidazole] | 0.42 | 1000 nM | –
COc1cccc2c1CCOC2(C)C1=NCCN1 (stereo not drawn) [Example 69, 2-(5-Methoxy-1-methylisochroman-1-yl)-4,5-dihydro-1H-imidazole] | 0.19 | – | –
COc1cccc2c1CCSC2C1=NCCN1 (stereo not drawn) [Example 70, 2-(5-Methoxyisothiochroman-1-yl)-4,5-dihydro-1H-imidazole] | 0.07 | 2000 nM | –
COc1cccc2c1C[C@@H](C)OC2(C)C1=NCCN1 (stereo partly drawn) [Example 71, 2-((3R)-5-methoxy-1,3-dimethylisochroman-1-yl)-4,5-dihydro-1H-imidazole] | 0.33 | 2000 nM | –
FC(F)(F)Cc1cccc2c1CCOC2C1=NCCN1 (stereo not drawn) [Example 72, 2-(5-(2,2,2-Trifluoroethyl)isochroman-1-yl)-4,5-dihydro-1H-imidazole] | 0.09 | 1580 nM | –
CCc1cccc2c1C[C@@H](C)OC2(C)C1=NCCN1 (stereo partly drawn) [Example 73, 2-((3R)-5-ethyl-1,3-dimethylisochroman-1-yl)-4,5-dihydro-1H-imidazole] | 0.19 | 1580 nM | –
COCC1Cc2c(C)cccc2C(C2=NCCN2)O1 (stereo not drawn) [Example 74, 2-(5-Methyl-3-(methoxymethyl)isochroman-1-yl)-4,5-dihydro-1H-imidazole] | 0.35 | 794 nM | –
Cc1cc(O)cc2c1CCOC2C1=NCCN1 (stereo not drawn) [Example 75, 1-(4,5-Dihydro-1H-imidazol-2-yl)-5-methylisochroman-7-ol] | 0.64 | 631 nM | –
CCC1Cc2c(O)cccc2C(C2=NCCN2)O1 (stereo not drawn) [Example 76, 1-(4,5-Dihydro-1H-imidazol-2-yl)-3-ethylisochroman-5-ol] | 0.15 | 631 nM | –
Cc1cccc2c1CCSC2(C)C1=NCCN1 (stereo not drawn) [Example 78, 2-(1,5-Dimethylisothiochroman-1-yl)-4,5-dihydro-1H-imidazole] | 0.62 | 501 nM | –
FC(F)(F)Oc1cccc2c1CCOC2C1=NCCN1 (stereo not drawn) [Example 79, 2-(5-(Trifluoromethoxy)isochroman-1-yl)-4,5-dihydro-1H-imidazole] | 0.30 | 398 nM | –
Cc1cccc2c1CC(CCF)OC2C1=NCCN1 (stereo not drawn) [Example 81, 2-(3-(2-Fluoroethyl)-5-methylisochroman-1-yl)-4,5-dihydro-1H-imidazole] | 0.54 | 158 nM | –
Cc1cccc2c1CC(CC(F)F)OC2C1=NCCN1 (stereo not drawn) [Example 84, 2-(3-(2,2-Difluoroethyl)-5-methylisochroman-1-yl)-4,5-dihydro-1H-imidazole] | 0.45 | – | 100 nM
COc1cc(C)c2c(c1)C(C1=NCCN1)OC(C)C2 (stereo not drawn) [Example 85, 2-(7-Methoxy-3,5-dimethylisochroman-1-yl)-4,5-dihydro-1H-imidazole] | 0.22 | 1000 nM | –
CSc1cccc2c1CCOC2C1=NCCN1 (stereo not drawn) [Example 87, 2-(5-(Methylthio)isochroman-1-yl)-4,5-dihydro-1H-imidazole] | 0.75 | – | 63.1 nM
FC(F)Oc1cccc2c1CCOC2C1=NCCN1 (stereo not drawn) [Example 90, 2-(5-(Difluoromethoxy)isochroman-1-yl)-4,5-dihydro-1H-imidazole] | 0.66 | – | 39.8 nM
CC[C@@H]1Cc2c(OC)cccc2C(C2=NCCN2)O1 (stereo partly drawn) [Example 91, 2-((3R)-3-ethyl-5-methoxyisochroman-1-yl)-4,5-dihydro-1H-imidazole] | 0.51 | – | 39.8 nM
C[C@@H]1Cc2c(OC(F)F)cccc2C(C2=NCCN2)O1 (stereo partly drawn) [Example 93, 2-((3R)-5-(difluoromethoxy)-3-methylisochroman-1-yl)-4,5-dihydro-1H-imidazole] | 0.64 | – | 31.6 nM
CC1(C2=NCCN2)OCc2cccc3cccc1c23 (stereo not drawn) [Example 98, 2-(1-Methyl-1,3-dihydrobenzo[de]isochromen-1-yl)-4,5-dihydro-1H-imidazole] | 0.58 | – | 12.6 nM
FC(F)c1cccc2c1CCOC2C1=NCCN1 (stereo not drawn) [Example 99, 2-(5-(Difluoromethyl)isochroman-1-yl)-4,5-dihydro-1H-imidazole] | 0.73 | – | 12.6 nM
c1cc2c3c(cccc3c1)C(C1=NCCN1)OC2 (stereo not drawn) [Example 102, 2-(1,3-Dihydrobenzo[de]isochromen-1-yl)-4,5-dihydro-1H-imidazole] | 0.82 | – | 2.51 nM
CC1OC(C2=NCCN2)c2cccc3cccc1c23 (stereo not drawn) [Example 104, 2-(3-Methyl-1,3-dihydrobenzo[de]isochromen-1-yl)-4,5-dihydro-1H-imidazole] | 0.95 | – | 3.16 nM
CCC1OC(C2=NCCN2)c2cccc3cccc1c23 (stereo not drawn) [Example 105, 2-(3-Ethyl-1,3-dihydrobenzo[de]isochromen-1-yl)-4,5-dihydro-1H-imidazole] | 0.66 | – | 39.8 nM
